# Source: the supplement of paper PMC10307832
# Tests used:
# Assay in all cases: relative viability (nuclei count vs DMSO), 5 days (fraction); higher = more cells survive
# [1] = compound: CN(NC(=O)CC(=O)NN(C)C(=S)c1ccccc1)C(=S)c1ccccc1 [Elesclomol] + Nc1nc2[nH]cc(CCc3ccc(C(=O)N[C@@H](CCC(=O)O)C(=O)O)cc3)c2c(=O)[nH]1 [Pemetrexed] (partner 0.2 µM)
# Summary of the method: (§1)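 Five library-drug doses in √10 steps were combined with a fixed anchor-drug dose, or a single drug was given alone, by pin tool to lung cancer cell lines in 1536-well plates the day after seeding. Nuclei were stained and counted after 5 days. Relative viability is the nuclei count in treated wells over that in vehicle wells, taken as the median of duplicate plates.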
# [2] = compound: CN(NC(=O)CC(=O)NN(C)C(=S)c1ccccc1)C(=S)c1ccccc1 [Elesclomol] + COc1cc2c(Oc3ccc(NC(=O)C4(C(=O)Nc5ccc(F)cc5)CC4)cc3F)ccnc2cc1OCCCN1CCOCC1 [Foretinib] (partner 0.25 µM)
# Summary of the method: as §1
# [3] = compound: CN(NC(=O)CC(=O)NN(C)C(=S)c1ccccc1)C(=S)c1ccccc1 [Elesclomol] + CC1(C)CCC(c2ccc(Cl)cc2)=C(CN2CCN(c3ccc(C(=O)NS(=O)(=O)c4ccc(N[C@H](CCN5CCOCC5)CSc5ccccc5)c(S(=O)(=O)C(F)(F)F)c4)cc3)CC2)C1 [Navitoclax] (partner 0.5 µM)
# Summary of the method: as §1
# [4] = compound: CN(NC(=O)CC(=O)NN(C)C(=S)c1ccccc1)C(=S)c1ccccc1 [Elesclomol] + COc1cccc2cc(-c3nc([C@H]4CC[C@H](C(=O)O)CC4)n4ncnc(N)c34)[nH]c12 [OSI-027] (partner 0.5 µM)
# Summary of the method: as §1
# [5] = compound: CN(NC(=O)CC(=O)NN(C)C(=S)c1ccccc1)C(=S)c1ccccc1 [Elesclomol] + Cc1cc(Nc2cc(N3CCN(C)CC3)nc(Sc3ccc(NC(=O)C4CC4)cc3)n2)n[nH]1 [Tozasertib] (partner 0.1 µM)
# Summary of the method: as §1
Cell Line,relative viability ([1]; first compound 0.003162 µM),relative viability ([1]; first compound 0.01 µM),relative viability ([1]; first compound 0.03162 µM),relative viability ([1]; first compound 0.1 µM),relative viability ([2]; first compound 0.003162 µM),relative viability ([2]; first compound 0.01 µM),relative viability ([2]; first compound 0.03162 µM),relative viability ([2]; first compound 0.1 µM),relative viability ([3]; first compound 0.003162 µM),relative viability ([3]; first compound 0.03162 µM),relative viability ([3]; first compound 0.1 µM),relative viability ([4]; first compound 0.003162 µM),relative viability ([4]; first compound 0.01 µM),relative viability ([4]; first compound 0.03162 µM),relative viability ([4]; first compound 0.1 µM),relative viability ([5]; first compound 0.003162 µM),relative viability ([5]; first compound 0.01 µM),relative viability ([5]; first compound 0.03162 µM),relative viability ([5]; first compound 0.1 µM),relative viability ([3]; first compound 0.01 µM)
NCI-H23,0.787,0.568,0.503,0.12,0.971,1.03,0.746,0.247,0.799,0.761,0.144,0.66,0.298,0.601,0.312,0.349,0.311,0.36,0.128,–
NCI-H322M,0.515,0.368,0.293,0.0948,0.837,0.656,0.356,0.26,1.27,1.06,0.858,0.565,0.328,0.268,0.116,0.335,0.275,0.186,0.122,–
NCI-H441,0.239,0.234,0.18,0.0576,1.07,0.924,0.513,0.127,0.712,0.253,0.103,0.563,0.37,0.327,0.103,0.546,0.794,0.332,0.1,0.469
NCI-H460,0.0667,0.0599,0.0708,0.0235,0.975,0.848,0.27,0.0259,0.997,0.0164,0.0095,0.619,0.276,0.101,0.0137,0.497,0.365,0.116,0.0193,0.379
NCI-H520,0.724,0.779,0.335,0.109,0.757,0.771,0.251,0.111,1.08,0.587,0.162,0.23,0.293,0.224,0.14,0.442,0.355,0.223,0.181,0.939
NCI-H596,0.523,0.452,0.489,0.211,0.918,1.03,0.764,0.158,0.912,0.877,0.189,0.8,0.694,0.757,0.206,0.925,0.828,0.598,0.178,0.941
NCI-H647,0.172,0.158,0.139,0.0481,1.05,0.973,0.359,0.0921,1.05,0.191,0.0372,0.603,0.368,0.161,0.203,0.388,0.212,0.0671,0.0175,0.665
NCI-H838,0.254,0.217,0.252,0.195,1.07,0.854,0.66,0.419,1.15,0.962,0.739,0.331,0.407,0.378,0.286,0.282,0.25,0.18,0.172,1.06
NCI-H1355,1.02,0.992,0.721,0.206,0.951,0.894,0.514,0.207,1.03,0.469,0.14,0.448,0.266,0.27,0.186,0.505,0.538,0.332,0.173,0.705
NCI-H1395,0.829,0.436,0.201,0.183,1.06,0.665,0.332,0.324,1.09,0.286,0.469,0.706,0.435,0.398,0.227,0.832,0.461,0.243,0.276,0.475
NCI-H1437,0.317,0.249,0.224,0.243,1.11,0.79,0.609,0.464,1.02,0.474,0.455,0.71,0.568,0.406,0.363,0.348,0.344,0.252,0.23,0.67
NCI-H1650,0.304,0.294,0.333,0.095,0.525,0.306,0.132,0.136,0.734,0.168,0.0893,0.221,0.201,0.151,0.132,0.227,0.168,0.139,0.136,0.331
NCI-H1651,0.638,0.61,0.535,0.432,0.727,0.436,0.0766,0.0932,0.971,0.137,0.0728,0.523,0.527,0.259,0.102,0.6,0.601,0.116,0.108,0.525
NCI-H1666,0.998,0.801,0.817,0.724,1.06,0.88,0.621,0.509,0.825,0.227,0.15,0.807,0.654,0.464,0.465,0.579,0.457,0.375,0.403,0.299
NCI-H1734,0.436,0.507,0.234,0.11,0.882,0.679,0.221,0.126,0.852,0.636,0.0859,0.573,0.491,0.178,0.124,0.276,0.24,0.126,0.0951,0.841
